Assay results taken from paper PMC4256409, “Role of Phenylalanine and Valine^10 Residues in the Antimicrobial Activity and Cytotoxicity of Piscidin-1” (PLoS ONE, 2014).
Where no end group is shown, it is not given here.

What was measured:
NIH3T3 cells = assay: Cytotoxicity, MTT assay; assay type: cell-based, mouse; conditions: 1 d
Method: The mouse embryonic fibroblast-derived cell line NIH3T3 was purchased from the American Type Culture Collection (Manassas, VA). Cells were cultured in Dulbecco’s modified Eagle medium (DMEM) supplemented with 10% fetal bovine serum (FBS) and antibiotic solution (100 units/mL penicillin and 100 µg/mL streptomycin) at 37°C in a humidified 5% CO2 atmosphere. Cultures were passaged every 2–3 days by brief trypsin treatment and visualized with an inverted microscope. The cytotoxicity of peptides against mammalian cells was determined using a 3-(4,5-dimethylthiazol-2-yl)-2,5-diphynyltetrazolium bromide (MTT) assay. Cells were seeded on 96-well microplates at a density of 1×10^4 cells/well in 100 µL of DMEM containing 10% FBS and 1% antibiotics, and […]. Plates were incubated for 24 h at 37°C in 5% CO2. Serial 2-fold dilutions of peptide solutions (100 µL) in DMEM were added; wells containing cells without peptides served as controls. After incubating plates for 1 d, 20 µL of MTT solution (5 mg/mL) was added to each well, and the plates were incubated for an additional 4 h at 37°C. Precipitated MTT formazan was dissolved by adding 100 µL of dimethyl sulfoxide. Absorbance at 570 nm was measured using an enzyme-linked immunosorbent assay (ELISA) reader (Molecular Devices; Sunnyvale, CA). Cell survival, expressed as a percentage, was calculated as the ratio of A570 for cells treated with peptide to that of cells without peptide treatment.

[1] = system: human red blood cells (hRBCs); assay: Hemolysis; assay type: cell-based
Method: The hemolytic ability of the peptides was tested using hRBCs. FreshhRBCs were washed three times with phosphate-buffered saline (PBS) (35 mM phosphate buffer containing 150 mM NaCl, pH 7.4), centrifuged for 10 min at 1000×g, and resuspended in PBS. The peptide solutions were then added to 50 µL of hRBCs in PBS to yield a final volume of 100 µL and a final erythrocyte concentration of 4% (v/v). The resulting suspension was incubated with agitation for 1 h at 37°C. The samples were centrifuged at 1000×g for 5 min. Hemoglobin release was monitored by measuring the absorbance of the supernatant at 405 nm. Controls for zero hemolysis (blank) and 100% hemolysis consisted of hRBCs suspended in PBS and 0.1% Triton-X 100, respectively. The percentage of hemolysis was calculated using the following equation: [drawing 1]

How did the “Survival rate of NIH3T3 cells” value (NIH3T3 cells; 6.25 µM peptide) turn out when “FFHHIFRGIVHVGKTIHRLVTG [Pis-1, reference compound]” was run?
Its value is 64%.

What about the “Survival rate of NIH3T3 cells” value (NIH3T3 cells; 12.5 µM peptide) of the same sequence?
The value was 49%.

And the “Survival rate of NIH3T3 cells” value (NIH3T3 cells; 25 µM peptide)?
Its value is 37%.

And the “Survival rate of NIH3T3 cells” value (NIH3T3 cells; 50 µM peptide)?
The value was 11%.

What about the “MHC (minimal peptide concentration that produced hemolysis)” value ([1]; pH 7.4) of the same sequence?
Its value is 1.6 µM.

What about the Hemolysis ([1]; peptide at its MIC, hRBCs) of the same sequence?
Its Hemolysis is “produced hemolysis even at its MIC”.
